This note sets out measurements from patent US20220364141A1, “Tryptase Activity Measurement Substrate” (National University Corporation Tokyo University of …, priority 2019, published 2022).

The star is where a group is joined. AMC = Cc1cc(=O)oc2cc(N*)ccc12; Tos = Cc1ccc(S(=O)(=O)*)cc1

In data set [1] the test system is human lung tryptase. As to the kind of experiment: Screening of tryptase substrates: responsiveness of fluorescent MCA substrates to tryptase. It counts as biochemical. The note with it: for Tryptase activity: relative value with the sensitivity of ^iBoc-Ala-Ala-Arg-MCA defined as 100, 100 μM substrate, 50 mM Tris-HCl pH 8.0, ex 365 nm / em 470 nm; for tryptase responsiveness compared with ^iBoc-Ala-Ala-Arg-MCA (in words): screening of Table 1. The protocol:
In addition to reference to past documents as described above, ^iBoc-Y-X-Arg-MCA in which Gly, Ala, Abu, Val, Pro, Phe or hydrophilic Lys having distinctive bulkiness was introduced to positions P2 and P3 was synthesized as listed in Table 1 by a peptide library approach, and activity measurement was performed. Abu (2-aminobutyric acid) is a non-protein amino acid, but was added as an optimum peptide sequence search tool.
The activity measurement was performed by the following method.
(1) A stock of a substrate solution was provided as a 2.0 mM solution in DMSO. (2) The stock of the substrate solution was diluted 20-fold with 50 mM Tris-HCl (pH 8.0) to prepare a 100 μM solution. 100 μL thereof was added to a polypropylene microtube, further 2 μL of a commercially available tryptase solution (manufactured by Cappel Laboratories, Inc.) was added thereto, and the tube was lightly vortexed for mixing. Immediately thereafter, change in fluorescence intensity at 470 nm was measured at an excitation wavelength of 365 nm using an enzyme activity measurement apparatus (manufactured by Peptide Support Ltd., prototype).

Data set [2] relates to Tryptase in Serum. Put plainly: Human serum enzyme activity with Suc-Ala-Ala-Arg-MCA-linked poly(L-lysine) substrate after addition of inhibitors. To be noted: for Enzyme activity: relative value with serum + PBS(-) defined as 100, human serum preincubated 10 min with 2 μL of 10 μM nafamostat or 10 U/mL hirudin, substrate Suc-Ala-Ala-Arg-MCA-linked poly(L-lysine). Type of data set: biochemical. The protocol: Suc-Ala-Ala-Arg-MCA-linked poly(L-lysine) prepared in Example 2 was used to test whether to be able to specifically measure tryptase activity in serum.
(1) 20.0 mg of Suc-Ala-Ala-Arg-MCA-linked poly(L-lysine) was dissolved in 50 mL of 50 mM Tris-HCl (pH 8.0). (2) 2 μL of commercially available human serum (manufactured by BioWest) was mixed with 2 μL of PBS(−) (pH 7.4) (control) or 2 μL of 10 μM nafamostat (tryptase inhibitor, manufactured by Tokyo Chemical Industry Co., Ltd.) or 2 μL of 10 U/mL hirudin (thrombin inhibitor, manufactured by Sigma-Aldrich Co., LLC). After a lapse of 10 minutes at room temperature, each mixed solution was added to 100 μL of the solution prepared in the step (1). Immediately thereafter, enzyme activity was measured.

Compound ^iBoc-Val-Pro-Arg-MCA showed a Tryptase activity in data set [1] of 20.

On to ^iBoc-Ala-Lys-Arg-MCA, for which, in data set [1], the Tryptase activity was 11.

In data set [1], ^iBoc-Lys-Gly-Arg-MCA yielded a Tryptase activity of 75.

In turn, ^iBoc-Phe-Ala-Arg-MCA showed a Tryptase activity in data set [1] of 62.

On to ^iBoc-Abu-Abu-Arg-MCA, for which, in data set [1], the Tryptase activity came to 69.

For ^iBoc-Ala-Abu-Arg-MCA, the Tryptase activity in data set [1] stood at 80.

In data set [1], ^iBoc-Gly-Gly-Arg-MCA had a Tryptase activity of 0.

In turn, ^iBoc-Ala-Phe-Arg-MCA yielded a Tryptase activity in data set [1] of 1.

For ^iBoc-Ala-Val-Arg-MCA, the Tryptase activity in data set [1] is reported as 50.

With ^iBoc-Abu-Ala-Arg-MCA, in data set [1], the Tryptase activity stood at 109 and the “tryptase responsiveness compared with ^iBoc-Ala-Ala-Arg-MCA (in words)” value is listed as “higher tryptase responsiveness than that of ^iBoc-Ala-Ala-Arg-MCA”.

In the case of ^iBoc-Ala-Ala-Arg-MCA, the Tryptase activity in data set [1] is on record as 100.

In the case of ^iBoc-Lys-Ala-Arg-MCA, in data set [1], the Tryptase activity is recorded as 167 and the “tryptase responsiveness compared with ^iBoc-Ala-Ala-Arg-MCA (in words)” value is on record as “higher tryptase responsiveness than that of ^iBoc-Ala-Ala-Arg-MCA”.

In data set [1], ^iBoc-Phe-Ser-Arg-MCA showed a Tryptase activity of 11.

In data set [1], ^iBoc-Val-Ala-Arg-MCA showed a Tryptase activity of 53.

Regarding “Tos-Gly-Pro-Arg-{AMC} [reference compound]”, in data set [1], the Tryptase activity was determined as 25.

On to ^iBoc-Lys-Pro-Arg-MCA, for which, in data set [1], the Tryptase activity is 175 and the “tryptase responsiveness compared with ^iBoc-Ala-Ala-Arg-MCA (in words)” value is recorded as “tryptase responsiveness slightly less than two times higher than that of ^iBoc-Ala-Ala-Arg-MCA”.

With `N=C(N)c1ccc2cc(OC(=O)c3ccc(N=C(N)N)cc3)ccc2c1` [nafamostat], the “inhibition of enzyme activity in serum detected with the macromolecular substrate (in words)” value in data set [2] (human serum, Suc-Ala-Ala-Arg-MCA-linked poly(L-lysine) substrate) is “completely inhibited”. Besides, the Enzyme activity in data set [2] was determined as 0.

Regarding hirudin, in data set [2], the Enzyme activity is on record as 83.

^iBoc-Gly-Pro-Arg-MCA displayed a Tryptase activity in data set [1] of 9.

`Cc1cc(=O)oc2cc(NC(=O)C(CCCNC(=N)N)NC(=O)OCC(C)C)ccc12` (stereo not drawn) [^iBoc-Arg-MCA] showed a Tryptase activity in data set [1] of 0.

Turning to ^iBoc-Phe-Gly-Arg-MCA, the Tryptase activity in data set [1] turned out to be 5.
